US8501792B2, “Treating cancer with desthiazolyl ritonavir” (priority 2008, dated 2013)

Columns and labels:
[1] = test system: H522 adenocarcinoma non-small cell lung cancer cell; assay: MTT proliferation assay, H522; format: cell-based; settings: 10 to 80 μmol/L, 48 hours, FIG. 18
Experimental: H522 adenocarcinoma non-small cell lung cancer cell proliferation was measured in 96-well plates by a 3-(4,5-dimethylthiazol-2-yl)-2,5 diphenyltetrazolium bromide (MTT) assay that measures reduction of MTT in 96-well plates (see Ohno M, Abe T. J Immunol Methods, 1991 Dec. 15; 145(1-2):199-203). The cells were exposed to 10 to 80 μmol/L ritonavir, M1 or DMSO vehicle for 48 hours and proliferation was subsequently quantified by MTT assay. The MTT was added to the medium at the endpoint and the plate was incubated for 2 hours. The plate was then centrifuged in an Allegra plate centrifuge at 2000 rpm for 5 minutes. The medium was removed, and the pellet was dissolved in 100 μL of DMSO per well. The pellet was dissolved using a gently vibrating platform. The plates were read with a BioTek Synergy plate reader in colorimetric mode at 540 nm. Each assay was performed in octuplicate for each data point.

[2] = test system: Purified mammalian Hsp90; assay: Hsp90 binding on CM-5 BIAcore chip (surface plasmon resonance); settings: RU value versus drug concentration; FIG. 11
Source text: Inhibition of Hsp90 can be evaluated by surface plasmon resonance studies of a compound of formula I, using a CM-5 Biacore chip on which Hsp90 (Stressgen, Ann Arbor) has been immobilized. This method can also be used to evaluate the chaperoning activity of a compound of formula I by evaluation of luciferase refolding. See Examples 4 and 9.
Purified mammalian Hsp90 was attached to a CM-5 BIAcore chip through an NHS ester linkage. After attachment of the Hsp90 and blocking the chip with BSA, M1 drug or a 17-AAG control was circulated through a microfluidic circuit and change in refractive index was measured by quantification of the RU value for each drug concentration. In the case of the 17-AAG control the binding was saturable and based on the kon and koff measurements, the KD was estimated to be in the 1 microM range. […] This means that there are significant differences in the binding of M-1 and may indicate alteration of the Hsp90 structure.

[3] = test system: ER+ lines; assay: MTT proliferation assay, ER+ lines (IC90); format: cell-based; settings: difference to ritonavir, read-out: IC90 values, amount less than ritonavir
Experimental: M1 inhibition of proliferation of MCF7, T47D and MDA-MB-231 cell lines was studied. Cells (n=2000/well) were seeded in 96 well plates with drug or vehicle (DMSO) on D1 and after 48 h the cell number was determined by MTT assay. Each assay was performed with 8 measurements for each data point (See FIG. 1, wherein graph A corresponds to MCF7, graph B corresponds to T47D, and graph C corresponds to MDA-MB-231).

[4] = test system: HIV; settings: MT-4 cell based assay; Denissen et al. 1997; cited from earlier work
[5] = test system: HER2; assay: Surface HER2 flow cytometry in SKBR3 cells; format: cell-based
Experimental: SKBR3 cells were plated at a density of 80,000 cells/well in 6-well plates. After 18 hours, cells were exposed to ritonavir (33 μM), Desthiazolyl Ritonavir (M1) (33 μM), or DMSO. After 24 hours, cells were trypsinized, spun down, and resuspended in 50 μL of Staining Buffer (PBS 1% BSA). Cells were then incubated with anti-HER2 Ab FITC (Chemicon International; MAB4083F) for 30 minutes (on-ice and in the dark). Control cells were incubated with mouse IgG1 FITC (Biolytex). Cells were washed two times with Washing Buffer (PBS 0.1% Tween-20), resuspended in 100 μL of PBS, and acquired using FACSCalibur flow cytometer.

Which results are given for `CC(C)c1nc(CN(C)C(=O)NC(C(=O)NC(Cc2ccccc2)CC(O)C(N)Cc2ccccc2)C(C)C)cs1` (stereo not drawn) [M1, desthiazolyl ritonavir]?
measured cell proliferation compared to cells exposed to ritonavir or DMSO [1]: lower; binding to Hsp90, saturability [2]: the binding is not saturable; IC90 [3]: > 30 µM; inhibition of HIV replication [4]: does not inhibit HIV replication; anti-HER2 functionality / expression of surface HER2 ([5]; SKBR3, 33 μM, 24 hours, FIG. 7): exhibited anti-HER2 functionality; reduction of the expression of surface HER2 ([5]; SKBR3 line, P<0.05): up to 80%
